The record followed here is EP2465840A1, “Terpene ether” (CABB GmbH, priority 2010, dated 2012).

A short description of data set [1]: Foam height of terpene ether at t=0. It counts as physicochemical. The text has this:
(§1) Die Eigenschaften von mehreren erfindungsgemäßen Terpenethern werden in Tabelle 19 zusammengefasst und mit denen anderen Terpenethern verglichen. Tabelle 19

The nature of another data set: Dynamic surface tension. It counts as physicochemical.
Source text: as §1

With “S-(-)-Milchsäuremethylester-isobornylether [NP2]”, the “Schaumhöhe t=0” value in data set [1] is 0 mm. In addition, in the data set “Dynamic surface tension”, the “Dynamische Oberflächenspannung Blasenfrequenz 1 Hz” value is listed as 65 mN/m and the “Dynamische Oberflächenspannung Blasenfrequenz 3 Hz” value turned out to be 67 mN/m.
The corresponding values for `CC1(C)C2CCC1(C)C(OCCOCCOCCO)C2` (stereo not drawn) [NP 6, Triethylenglykol-isobornylether] are 0 mm, 43 mN/m and 45 mN/m.
For `CC(=O)OCC(COC1CC2CCC1(C)C2(C)C)OC(C)=O` (stereo not drawn) [NP7, Diacetin-isobornytether] the same measures were 0 mm, 52 mN/m and 57 mN/m.
Regarding Milchsäure-isobornylether [NP 14], the “Schaumhöhe t=0” value in data set [1] was 0 mm. Besides, in the data set “Dynamic surface tension”, the “Dynamische Oberflächenspannung Blasenfrequenz 1 Hz” value is listed as 45 mN/m and the “Dynamische Oberflächenspannung Blasenfrequenz 3 Hz” value stood at 47 mN/m.
The corresponding values for `CC1(C)C2CCC1(C)C(OCCOC1CC3CCC1(C)C3(C)C)C2` (stereo not drawn) [NP 23, Ethylenglykol-diisobornylether] are 6 mm, 66 mN/m and 68 mN/m.
For “Dipropylenglykol-düsobornylether [NP 22]” the same measures were 0 mm, 64 mN/m and 68 mN/m.
Turning to Tripropylenglykol-isobornylether [NP 3], in data set [1], the “Schaumhöhe t=0” value stood at 0 mm. In addition, in “Dynamic surface tension”, the “Dynamische Oberflächenspannung Blasenfrequenz 1 Hz” value turned out to be 45 mN/m and the “Dynamische Oberflächenspannung Blasenfrequenz 3 Hz” value stood at 63 mN/m.
